Laboratory results as given in ChEMBL document CHEMBL1201862, “PubChem BioAssay data set” (2004).
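Cells were grown in 96-well plates and exposed to each compound for 48 hours at five concentrations; endpoints were interpolated linearly between bracketing concentrations, or set to the highest concentration if not reached. GI50 = concentration required for 50% inhibition of growth.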 Active and inactive are the calls of the source. Cut-off read from the data, not from the text of the source: active = GI50 up to about 1.1 µM and inactive = higher. Starred links: 1 amine or outer side, 2 acyl side, 3 side chain; linkers in the order of their positions; H or OH if unused. Non-standard residues stand in square brackets, D forms with d. Residues, ends and D or L forms follow the SMILES beside them. X41 = CSCCCC(N[*:1])C(=O)[*:2]

Assays:
Test in all cases: NCI anticancer screen, dose series, 48 h
SK-MEL-5 = tested on: SK-MEL-5
DU-145 = tested on: DU-145
HCT-15 = tested on: HCT-15
NCI-H226 = tested on: NCI-H226
MDA-MB-231 = tested on: MDA-MB-231
NCI/ADR-RES = tested on: NCI/ADR-RES
COLO 205 = tested on: COLO 205
MDA-MB-435 = tested on: MDA-MB-435
786-0 = tested on: 786-0
OVCAR-5 = tested on: OVCAR-5
RPMI-8226 = tested on: RPMI-8226
M14 = tested on: M14
IGROV-1 = tested on: IGROV-1
MDA-N = tested on: MDA-N
OVCAR-3 = tested on: OVCAR-3
UACC-62 = tested on: UACC-62
SF-295 = tested on: SF-295
SW-620 = tested on: SW-620
UO-31 = tested on: UO-31
SR = tested on: SR

Compound | GI50 (SK-MEL-5) | GI50 (DU-145) | GI50 (HCT-15) [µM] | GI50 (NCI-H226) | GI50 (MDA-MB-231) | GI50 (NCI/ADR-RES) | GI50 (COLO 205) | GI50 (MDA-MB-435) | GI50 (786-0) | GI50 (OVCAR-5) | GI50 (RPMI-8226) | GI50 (M14) | GI50 (IGROV-1) | GI50 (MDA-N) | GI50 (OVCAR-3) | GI50 (UACC-62) | GI50 (SF-295) | GI50 (SW-620) | GI50 (UO-31) | GI50 (SR)
NNC(=O)CS(=O)(=O)Nc1ncccn1 | > 100 µM (inactive) | > 100 µM (inactive) | > 100 | > 100 µM (inactive) | > 100 µM (inactive) | > 100 µM (inactive) | > 100 µM (inactive) | > 100 µM (inactive) | > 100 µM (inactive) | > 100 µM (inactive) | > 100 µM (inactive) | > 100 µM (inactive) | > 100 µM (inactive) | > 100 µM (inactive) | > 100 µM (inactive) | > 100 µM (inactive) | > 100 µM (inactive) | > 100 µM (inactive) | > 100 µM (inactive) | –
NS(=O)(=O)c1ccc(/N=N/c2ccc(O)c(C(=O)O)c2)cc1 [SALAZOSULFAMIDE] | > 100 µM (inactive) | > 100 µM (inactive) | > 100 | > 100 µM (inactive) | > 100 µM (inactive) | > 100 µM (inactive) | > 100 µM (inactive) | > 100 µM (inactive) | > 100 µM (inactive) | > 100 µM (inactive) | > 100 µM (inactive) | > 100 µM (inactive) | > 100 µM (inactive) | > 100 µM (inactive) | > 100 µM (inactive) | > 100 µM (inactive) | > 100 µM (inactive) | > 100 µM (inactive) | > 100 µM (inactive) | –
CSCCCC(NC(=O)CNC(=O)C1CCCN1C(=O)C(Cc1ccc(O)cc1)NC(=O)C(Cc1ccccc1)NC(=O)C(CCCNC(=N)N)NC(=O)C(CC(=O)O)NC(=O)C1CCCN1C(=O)C(CC(=O)O)NC(=O)C1CCCN1C(=O)C1CCCN1C(=O)CN)C(N)=O (stereo unspecified) (H-GPPDPDRFYPG[X41]-NH2; configuration not given here) | > 50 µM (inactive) | – | > 50 | > 50 µM (inactive) | > 50 µM (inactive) | > 50 µM (inactive) | > 50 µM (inactive) | > 50 µM (inactive) | > 50 µM (inactive) | > 50 µM (inactive) | > 50 µM (inactive) | > 50 µM (inactive) | > 50 µM (inactive) | > 50 µM (inactive) | > 50 µM (inactive) | > 50 µM (inactive) | > 50 µM (inactive) | > 50 µM (inactive) | > 50 µM (inactive) | > 50 µM (inactive)
O=C(Cn1c(=O)ccn(C2OC(CO)C(O)C2F)c1=O)c1ccc(F)cc1 (stereo unspecified) | > 100 µM (inactive) | > 100 µM (inactive) | > 100 | > 100 µM (inactive) | > 100 µM (inactive) | > 100 µM (inactive) | > 100 µM (inactive) | > 100 µM (inactive) | > 100 µM (inactive) | > 100 µM (inactive) | > 100 µM (inactive) | – | > 100 µM (inactive) | > 100 µM (inactive) | > 100 µM (inactive) | > 100 µM (inactive) | > 100 µM (inactive) | > 100 µM (inactive) | > 100 µM (inactive) | –
Cc1cc2[nH]c3c(C#N)c(-c4ccccc4)c(/C=N/c4ccc(F)cc4)c(=O)n3c2cc1C | > 100 µM (inactive) | – | > 100 | 69.7 µM (inactive) | > 100 µM (inactive) | > 100 µM (inactive) | > 100 µM (inactive) | 91.2 µM (inactive) | > 100 µM (inactive) | > 100 µM (inactive) | > 100 µM (inactive) | > 100 µM (inactive) | > 100 µM (inactive) | 59.7 µM (inactive) | 39.4 µM (inactive) | – | 64.6 µM (inactive) | 62.5 µM (inactive) | > 100 µM (inactive) | –
Cc1oc2nc1C(=O)NCc1nc(cs1)C(=O)N[C@H](C(C)C)c1nc(cs1)C(=O)N[C@H]2C | 23.1 µM (inactive) | 79.3 µM (inactive) | 52.8 | 42.9 µM (inactive) | 9.57 µM (inactive) | 30.1 µM (inactive) | 75.7 µM (inactive) | > 100 µM (inactive) | 57.4 µM (inactive) | > 100 µM (inactive) | 14.3 µM (inactive) | > 100 µM (inactive) | 29.9 µM (inactive) | > 100 µM (inactive) | > 100 µM (inactive) | 81.5 µM (inactive) | 18.4 µM (inactive) | > 100 µM (inactive) | 37.2 µM (inactive) | –
COC(=O)C1=C2SCc3cccc(c3)CSC3=C(C(=O)OC)SC(=C(S2)S1)S3 | > 100 µM (inactive) | > 100 µM (inactive) | – | > 100 µM (inactive) | 24.7 µM (inactive) | – | > 100 µM (inactive) | > 100 µM (inactive) | > 100 µM (inactive) | – | > 100 µM (inactive) | 82.6 µM (inactive) | – | 35.2 µM (inactive) | > 100 µM (inactive) | > 100 µM (inactive) | > 100 µM (inactive) | > 100 µM (inactive) | > 100 µM (inactive) | –
C/C(=C\COP(=O)(O)OP(=O)(O)O)CCCOCc1ccccc1 | 46.5 µM (inactive) | > 100 µM (inactive) | > 100 | > 100 µM (inactive) | > 100 µM (inactive) | > 100 µM (inactive) | > 100 µM (inactive) | > 100 µM (inactive) | > 100 µM (inactive) | > 100 µM (inactive) | 0.207 µM (active) | > 100 µM (inactive) | > 100 µM (inactive) | – | > 100 µM (inactive) | > 100 µM (inactive) | > 100 µM (inactive) | > 100 µM (inactive) | > 100 µM (inactive) | > 100 µM (inactive)
COC(=O)/C=C1/N=C(N(C)/N=C/c2ccccc2)NC1=O | > 100 µM (inactive) | > 100 µM (inactive) | > 100 | – | > 100 µM (inactive) | > 100 µM (inactive) | > 100 µM (inactive) | – | > 100 µM (inactive) | > 100 µM (inactive) | – | > 100 µM (inactive) | > 100 µM (inactive) | > 100 µM (inactive) | > 100 µM (inactive) | > 100 µM (inactive) | > 100 µM (inactive) | > 100 µM (inactive) | > 100 µM (inactive) | > 100 µM (inactive)
CC1=CCS(=O)(=O)C1C(O)C1=C(C)CCCC1(C)C (stereo unspecified) | 44.4 µM (inactive) | > 100 µM (inactive) | > 100 | > 100 µM (inactive) | > 100 µM (inactive) | 78.7 µM (inactive) | 60.1 µM (inactive) | 63.4 µM (inactive) | > 100 µM (inactive) | > 100 µM (inactive) | 14.3 µM (inactive) | 69.2 µM (inactive) | > 100 µM (inactive) | 63.1 µM (inactive) | 99.8 µM (inactive) | 87.1 µM (inactive) | 22.2 µM (inactive) | > 100 µM (inactive) | 38.3 µM (inactive) | –
CCCCCC(C)C[C@H]1CO[C@H](c2ccc[nH]2)N[C@H]1C(=O)OC (stereo partly specified) | > 100 µM (inactive) | > 100 µM (inactive) | > 100 | – | > 100 µM (inactive) | > 100 µM (inactive) | > 100 µM (inactive) | > 100 µM (inactive) | > 100 µM (inactive) | > 100 µM (inactive) | > 100 µM (inactive) | > 100 µM (inactive) | > 100 µM (inactive) | > 100 µM (inactive) | > 100 µM (inactive) | > 100 µM (inactive) | > 100 µM (inactive) | > 100 µM (inactive) | – | –
CN(C)c1ccc(/C=N/NC2=N/C(=C\c3ccco3)C(=O)N2)cc1 | > 100 µM (inactive) | > 100 µM (inactive) | > 100 | > 100 µM (inactive) | > 100 µM (inactive) | > 100 µM (inactive) | > 100 µM (inactive) | > 100 µM (inactive) | > 100 µM (inactive) | > 100 µM (inactive) | > 100 µM (inactive) | > 100 µM (inactive) | > 100 µM (inactive) | > 100 µM (inactive) | > 100 µM (inactive) | > 100 µM (inactive) | > 100 µM (inactive) | > 100 µM (inactive) | > 100 µM (inactive) | –
CC(C)N1[C@@H]2CCCC[C@H]2N(C(C)C)[PH]1=O | > 100 µM (inactive) | > 100 µM (inactive) | > 100 | > 100 µM (inactive) | – | > 100 µM (inactive) | > 100 µM (inactive) | > 100 µM (inactive) | > 100 µM (inactive) | > 100 µM (inactive) | > 100 µM (inactive) | > 100 µM (inactive) | – | > 100 µM (inactive) | > 100 µM (inactive) | > 100 µM (inactive) | > 100 µM (inactive) | > 100 µM (inactive) | > 100 µM (inactive) | > 100 µM (inactive)
CC1C(c2ccccc2O)c2cc3c(cc2OC1N1CCOCC1)OCO3 (stereo unspecified) | 22.1 µM (inactive) | 38.5 µM (inactive) | 31 | 25.3 µM (inactive) | 29.9 µM (inactive) | – | 21.2 µM (inactive) | 25.4 µM (inactive) | 34.7 µM (inactive) | 47.5 µM (inactive) | 15.5 µM (inactive) | 35.4 µM (inactive) | 27.7 µM (inactive) | 35.2 µM (inactive) | 22.6 µM (inactive) | 26.2 µM (inactive) | 21.7 µM (inactive) | 42.3 µM (inactive) | 26.7 µM (inactive) | 12.5 µM (inactive)
O=C1c2cn[nH]c2N=C(Nc2ccccc2)C1/N=C/c1ccc([N+](=O)[O-])cc1 (stereo unspecified) | > 10 µM (inactive) | > 10 µM (inactive) | – | > 10 µM (inactive) | – | – | – | > 10 µM (inactive) | > 10 µM (inactive) | > 10 µM (inactive) | – | > 10 µM (inactive) | – | > 10 µM (inactive) | > 10 µM (inactive) | – | > 10 µM (inactive) | – | > 10 µM (inactive) | > 10 µM (inactive)
